{"source": "patent US20150140089A1", "about": "(MetronomX, priority 2012, published 2015)", "key": {"[1]": {"details": "2% w/v SDS in water"}, "[2]": {"details": "blood level of active compound; cited from earlier work"}, "[3]": {"assay": "In vitro release (dissolution), USP apparatus II, 5% SDS in 0.1N HCl", "assay_type": "physicochemical", "details": "0.1N HCl with 5% SDS; in 24 hr", "description": "(§1) At specified time intervals (0.5, 1, 2, 4, 8, 10, and 24 h), 2 ml of sample was collected from each basket and replaced with the same volume of buffer."}, "[4]": {"assay": "In vitro release (dissolution) using 2% w/v SDS in deionized water", "assay_type": "physicochemical", "description": "as §1\nDissolution of each formulation was performed in duplicate."}}, "note": "Several values for one entry are separate records, joined by “and”; a condition that tells them apart may be missing. Equal entries are not always repeated. Where two headings read alike, the source gives them in different places."}
{"compound": "CC1CS(=O)(=O)CCN1/N=C/c1ccc([N+](=O)[O-])o1", "note": "(stereo not drawn) [Nifurtimox, 3-methyl-4-(5′-nitrofurfurylidene-amino)-tetrahydro-4H-1,4-thiazine-1,1-dioxide]", "values": [{"measurement": "Estimated Amount of Nifurtimox", "setting": "[1]; 25 °C, 0 hr", "result": 344.22, "unit": "µg/mL"}, {"measurement": "Estimated Amount of Nifurtimox", "setting": "[1]; 25 °C, 4 hr", "result": 339.96, "unit": "µg/mL"}, {"measurement": "Estimated Amount of Nifurtimox", "setting": "[1]; 25 °C, 8 hr", "result": 345.38, "unit": "µg/mL"}, {"measurement": "Estimated Amount of Nifurtimox", "setting": "[1]; 25 °C, 12 hr", "result": 346.21, "unit": "µg/mL"}, {"measurement": "Estimated Amount of Nifurtimox", "setting": "[1]; 25 °C, 16 hr", "result": 346.94, "unit": "µg/mL"}, {"measurement": "Estimated Amount of Nifurtimox", "setting": "[1]; 25 °C, 20 hr", "result": 344.92, "unit": "µg/mL"}, {"measurement": "Estimated Amount of Nifurtimox", "setting": "[1]; 25 °C, 24 hr", "result": 341.80, "unit": "µg/mL"}, {"measurement": "Estimated Amount of Nifurtimox", "setting": "[1]; 37 °C, 1 hr", "result": 338.78, "unit": "µg/mL"}, {"measurement": "Estimated Amount of Nifurtimox", "setting": "[1]; 37 °C, 2 hr", "result": 339.74, "unit": "µg/mL"}, {"measurement": "Estimated Amount of Nifurtimox", "setting": "[1]; 37 °C, 3 hr", "result": 338.78, "unit": "µg/mL"}, {"measurement": "Estimated Amount of Nifurtimox", "setting": "[1]; 37 °C, 24 hr", "result": "343.76 µg/mL and 339.56 µg/mL"}, {"measurement": "half-life", "setting": "[2]", "result": "2.95 ± 1.19", "unit": "h"}, {"measurement": "time to peak", "setting": "[2]", "result": "1 to 2", "unit": "h"}, {"measurement": "Nifurtimox degradation in dissolution samples", "setting": "[3]", "result": "about 25%"}, {"measurement": "instability of Nifurtimox during dissolution (in words)", "setting": "[4]", "result": "no significant instability"}]}
